Consider six molecules from US4709012A, “Novel inhibitor peptides” (Washington University, priority 1986, dated 1987).

Common to all, as to assay: Octapeptide substrate specificity / kinetic characterization with partially purified yeast myristoylating enzyme (Table II)
Series [1] concerns the target T1, myristoylating enzyme from yeast (N-myristoylglycylpeptide synthetase) (Saccharomyces cerevisiae, UniProt P14743).
T1 construct: partially purified from a crude homogenate of the cultured yeast cells by fractionation with 51-70% (NH4)2 SO4; endogenous in cells; host or cells: S. cerevisiae strain JR153; ammonium sulfate cut, DEAE-Sepharose CL-6B, CoA-agarose
T1 sequence (P14743 1-455): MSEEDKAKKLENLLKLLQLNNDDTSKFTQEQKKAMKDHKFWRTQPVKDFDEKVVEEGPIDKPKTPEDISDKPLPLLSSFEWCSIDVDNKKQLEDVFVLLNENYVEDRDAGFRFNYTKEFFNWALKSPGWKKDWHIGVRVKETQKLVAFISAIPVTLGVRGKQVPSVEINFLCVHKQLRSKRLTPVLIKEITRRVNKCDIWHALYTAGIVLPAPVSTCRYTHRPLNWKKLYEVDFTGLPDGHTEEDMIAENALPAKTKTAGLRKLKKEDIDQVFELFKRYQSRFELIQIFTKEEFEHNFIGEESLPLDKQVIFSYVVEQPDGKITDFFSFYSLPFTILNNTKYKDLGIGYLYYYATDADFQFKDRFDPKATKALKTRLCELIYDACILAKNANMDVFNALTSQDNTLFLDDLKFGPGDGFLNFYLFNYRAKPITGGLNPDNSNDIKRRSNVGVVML
Type of series: biochemical. To be noted: for Ki: inhibition of myristoylation of the substrate Gly-Asn-Ala-Ala-Ala-Ala-Arg-Arg. How it is done: (§1) The synthetic octapeptide Gly-Asn-Ala-Ala-Ala-Ala-Arg-Arg was initially used to identify a unique enzymatic activity which transfers myristic acid to the amino terminal glycine of this and other peptides. […] The enzyme activity was determined in an in vitro assay which measures the transfer of [^3 H]-myristic acid to the acceptor peptide. The transfer reaction is dependent on adenosine triphosphate (ATP) and coenzyme A (CoA). The enzymatic product was then identified by high performance liquid chromatography (HPLC) by co-elution with a chemically synthesized myristoyl peptide standard. […] Both contained M-myristoyl glycine.
(§2) [^3 H]Fatty acyl CoA was synthesized enzymatically and added to the incubation as follows. The acyl CoA synthetase reaction consisted of (per one assay tube): 0.5 μCi of [^3 H]myristic acid; 25 μl of 2X assay buffer (20 mM Tris, pH 7.4, 2 mM dithiothreitol, 10 mM MgCl2, 0.2 mM EGTA); 5 μl of 50 mM ATP in distilled water, adjusted to pH 7.0 with NaOH; […] in distilled water; 15 μl of lmU/μl of Pseudomonas acyl CoA synthetase (Sigma) in 50 mM N-2-hydroxyethylpiperazine-N'-2-ethane sulfonic acid, pH 7.3; 2.5 μl of distilled water. The reaction was allowed to proceed for 20 minutes at 30° C. Typically, 40% to 50% of the [^3 H]fatty acid was converted to its CoA ester by this procedure as measured by determining the radioactivity remaining in the reaction after acidification with 6 N HCl to pH 2.0 and extraction 6 times with 5 volumes of heptane, a modification of the method of Hosaka et al., Meth. Enzymol. 71, 325-333 (1981). Fifty microliters of this reaction were added to tubes containing 40 μl of assay extraction buffer (see above) and 10 μl of 1 mM GlyAsnAlaAlaAlaAlaArgArg. The assay was initiated by the addition of 10 μl of yeast cell extract (typically 50 μg of protein) per tube, followed by incubation at 30° C. for 10 min. The assay was terminated by the addition of 110 μl of methanol and 10 μl of 100% trichloracetic acid (w/v) per tube, followed by cooling ten minutes on ice. Precipitated protein was removed by centrifugation at 8000 x g for 3 minutes in a tabletop Eppendorf centrifuge. (Under these conditions, 95% of synthetic [^3 H]myristoylpeptide or [^3 H]palmitoylpeptide remined soluble when added to an assay mixture.) Fifty microliters of the supernatant were mixed with 75 μl methanol and 75 μl of HPLC buffer A, and analyzed by reverse phase HPLC on a 3.9 mm by 30 cm Waters μ-Bondapak C18 column using the same HPLC buffers described above, starting at 35% acetonitrile and eluting with a 1% per minute acetonitrile gradient. One minute fractions were collected and the radioactivity in each fraction determined by liquid scintillation counting. [^3 H]Myristoyl-GlyAsnAlaAlaAlaAlaArgArg eluted at 24 minutes, while [^3 H]palmitoyl-GlyAsnAlaAlaAlaAlaArgArg eluted at 30 minutes.
Several octapeptides illustrating the present invention were synthesized by the solid phase Merrifield procedure essentially as described in Example 1 and then tested for activity as substrates or inhibitors for the myristoylating enzyme from yeast (S. cerevisiae strain JR153). The octapeptide substrate specificity of the enzyme was tested under the assay conditions described in Example 2 but using 1 μCi of [^3 H]- myristic acid per assay tube. The yeast enzyme used in this example was partially purified from a crude homogenate of the cultured yeast cells by fractionation with 51-70% (NH4)2 SO4 followed by ion exchange column chromatography with DEAE-Sepharose® CL-6B (Pharmacia) and affinity chromatography with CoA-agarose affinity matrix (Pharmacia).

Substrate in series [2]: CC(C)C[C@H](NC(=O)CN)C(=O)N[C@@H](C)C(=O)N[C@@H](C)C(=O)N[C@@H](C)C(=O)N[C@@H](C)C(=O)N[C@@H](CCCNC(=N)N)C(=O)N[C@@H](CCCNC(=N)N)C(N)=O
The format is biochemical, Saccharomyces cerevisiae. The following applies: other: peptide as acyl acceptor, 1 μCi [3H]-myristic acid per tube, 30.0 °C. How it is done:
as §1
as §2, with “The reaction was allowed to proceed for 20 minutes at 30° C.” left out, “Enzymol. 71, 325-333 (1981). Fifty microliters of this reaction were added to tubes containing 40 μl of assay extraction buffer (see above) and 10 μl of 1 mM GlyAsnAlaAlaAlaAlaArgArg. The assay was initiated by the addition of 10 μl of yeast cell extract (typically 50 μg of protein) per tube, followed by incubation at 30° C. for 10 min. The assay was terminated by the addition of 110 μl of methanol and 10 μl of 100% trichloracetic acid (w/v) per tube, followed by cooling ten minutes on ice. Precipitated protein was removed by centrifugation at 8000 x g for 3 minutes in a tabletop Eppendorf centrifuge.” left out, “[^3 H]Myristoyl-GlyAsnAlaAlaAlaAlaArgArg eluted at 24 minutes, while [^3 H]palmitoyl-GlyAsnAlaAlaAlaAlaArgArg eluted at 30 minutes.” left out

Substrate in series [3]: CC(C)[C@H](NC(=O)CN)C(=O)N[C@@H](C)C(=O)N[C@@H](C)C(=O)N[C@@H](C)C(=O)N[C@@H](C)C(=O)N[C@@H](CCCNC(=N)N)C(=O)N[C@@H](CCCNC(=N)N)C(N)=O
The format is biochemical, Saccharomyces cerevisiae. The following applies: other: peptide as acyl acceptor, 1 μCi [3H]-myristic acid per tube, 30.0 °C. How it is done: as §1
as §2, with “The reaction was allowed to proceed for 20 minutes at 30° C.” left out, “Enzymol. 71, 325-333 (1981). Fifty microliters of this reaction were added to tubes containing 40 μl of assay extraction buffer (see above) and 10 μl of 1 mM GlyAsnAlaAlaAlaAlaArgArg. The assay was initiated by the addition of 10 μl of yeast cell extract (typically 50 μg of protein) per tube, followed by incubation at 30° C. for 10 min. The assay was terminated by the addition of 110 μl of methanol and 10 μl of 100% trichloracetic acid (w/v) per tube, followed by cooling ten minutes on ice. Precipitated protein was removed by centrifugation at 8000 x g for 3 minutes in a tabletop Eppendorf centrifuge.” left out, “[^3 H]Myristoyl-GlyAsnAlaAlaAlaAlaArgArg eluted at 24 minutes, while [^3 H]palmitoyl-GlyAsnAlaAlaAlaAlaArgArg eluted at 30 minutes.” left out

Substrate in series [4]: C[C@H](NC(=O)[C@H](C)NC(=O)[C@H](C)NC(=O)[C@H](CC(N)=O)NC(=O)CN)C(=O)N[C@@H](C)C(=O)N[C@@H](CCCNC(=N)N)C(=O)N[C@@H](CCCNC(=N)N)C(N)=O
Type of series: biochemical, Saccharomyces cerevisiae. The following applies: other: peptide as acyl acceptor, 1 μCi [3H]-myristic acid per tube, 30.0 °C. The method, then: as §1
as §2, with “The reaction was allowed to proceed for 20 minutes at 30° C.” left out, “Enzymol. 71, 325-333 (1981). Fifty microliters of this reaction were added to tubes containing 40 μl of assay extraction buffer (see above) and 10 μl of 1 mM GlyAsnAlaAlaAlaAlaArgArg. The assay was initiated by the addition of 10 μl of yeast cell extract (typically 50 μg of protein) per tube, followed by incubation at 30° C. for 10 min. The assay was terminated by the addition of 110 μl of methanol and 10 μl of 100% trichloracetic acid (w/v) per tube, followed by cooling ten minutes on ice. Precipitated protein was removed by centrifugation at 8000 x g for 3 minutes in a tabletop Eppendorf centrifuge.” left out, “[^3 H]Myristoyl-GlyAsnAlaAlaAlaAlaArgArg eluted at 24 minutes, while [^3 H]palmitoyl-GlyAsnAlaAlaAlaAlaArgArg eluted at 30 minutes.” left out

[5] abbreviates: partially purified yeast enzyme.

Where no end group is shown, it is not given here.

As a reminder, the Ki is a measure of affinity in units of concentration, obtained from inhibition or displacement. One may read the Km as the substrate concentration at which the rate is half of its maximum.

As to “GVAAAARR-NH2 [Gly--Val--Ala--Ala--Ala--Ala--Arg--Arg]”, in series [1] (setting [5]), the affinity corresponds to a Ki of 60 µM.
Still for that read-out and setting: the result for “GLAAAARR-NH2 [Gly--Leu--Ala--Ala--Ala--Ala--Arg--Arg]” reads 60 µM.
Same read-out and setting: the figure for “GYAAAARR-NH2 [Gly--Tyr--Ala--Ala--Ala--Ala--Arg--Arg, Gly-Tyr-Ala-Ala-Ala-Ala-Arg-Arg]” is 150 µM; for “GFAAAARR-NH2 [Gly--Phe--Ala--Ala--Ala--Ala--Arg--Arg, Gly-Phe-Ala-Ala-Ala-Ala-Arg-Argp]” it is 150 µM.
Turning to “GNAAAARR-NH2 [Gly--Asn--Ala--Ala--Ala--Ala--Arg--Arg, Gly-Asn-Ala-Ala-Ala-Ala-Arg-Arg, reference compound]”, in series [1] (absolute Vmax, footnote to Table II), the Vmax is 2840 pmol myristoyl peptide formed. For the same molecule, the “Relative Vmax (%)” value in series [1] (relative to Gly-Asn-Ala-Ala-Ala-Ala-Arg-Arg = 100, partially purified yeast enzyme) stood at 100%.

B1: myristoylating enzyme from yeast (N-myristoylglycylpeptide synthetase) (Saccharomyces cerevisiae S288C) (protein)
chain: MSEEDKAKKLENLLKLLQLNNDDTSKFTQEQKKAMKDHKFWRTQPVKDFDEKVVEEGPIDKPKTPEDISDKPLPLLSSFEWCSIDVDNKKQLEDVFVLLNENYVEDRDAGFRFNYTKEFFNWALKSPGWKKDWHIGVRVKETQKLVAFISAIPVTLGVRGKQVPSVEINFLCVHKQLRSKRLTPVLIKEITRRVNKCDIWHALYTAGIVLPAPVSTCRYTHRPLNWKKLYEVDFTGLPDGHTEEDMIAENALPAKTKTAGLRKLKKEDIDQVFELFKRYQSRFELIQIFTKEEFEHNFIGEESLPLDKQVIFSYVVEQPDGKITDFFSFYSLPFTILNNTKYKDLGIGYLYYYATDADFQFKDRFDPKATKALKTRLCELIYDACILAKNANMDVFNALTSQDNTLFLDDLKFGPGDGFLNFYLFNYRAKPITGGLNPDNSNDIKRRSNVGVVML
notes: partially purified from a crude homogenate of the cultured yeast cells by fractionation with 51-70% (NH4)2 SO4; endogenous in cells; host or cells: S. cerevisiae strain JR153; ammonium sulfate cut, DEAE-Sepharose CL-6B, CoA-agarose
For B1, the Km in series [2] worked out at 300 µM; in series [3], 700 µM; in series [4], 60 µM.
